Measured values: publication PMC2131757 (BMC Neuroscience, 2007)

Legend:
Format in all cases: cell-based, murine
[1] = tested on: cPLA2 in NB4 1A3 neuroblastoma cells
[2] = tested on: COX-1 in NB4 1A3 neuroblastoma cells
NB4 neuroblastoma cells = tested on: NB4 neuroblastoma cells
[3] = tested on: NB4 1A3 neuroblastoma cells; settings: n = 6
[4] = tested on: NB4 1A3 neuroblastoma cells
[5] = tested on: NB4 1A3 neuroblastoma cells; remark: listed apart in the source
[6] = tested on: NB4 1A3 neuroblastoma cells; remark: listed apart in the source

Compound	% of MoPrP105-132 co-localised with cPLA2 in Hexa-PAF-treated cells [1]	% of MoPrP105-132 co-localised with COX-1 in Hexa-PAF-treated cells [2]	effect of squalestatin treatment on MoPrP105-132 induced neurotoxicity (NB4 neuroblastoma cells)	% of MoPrP105-132 co-localised with cPLA2 in squalestatin-treated cells [1]	% of MoPrP105-132 co-localised with COX-1 in squalestatin-treated cells [2]	cell associated fluorescence (mean fluorescence intensity) of ingested MoPrP105-132 in squalestatin treated cells [3]	endosomal fraction in which MoPrP105-132 is detected in squalestatin-treated cells [4]	membrane fraction in which MoPrP105-132 is found (raft / non-raft) in squalestatin-treated cells [5]	% of MoPrP105-132 co-localised with CTxB in squalestatin-treated cells [6]	% of MoPrP105-132 co-localised with GM130 (Golgi) in squalestatin-treated cells [6]	% of MoPrP105-132 co-localised with Grp78 (ER) in squalestatin-treated cells [6]	% of MoPrP105-132 co-localised with LAMP-1 (lysosomes) in squalestatin-treated cells [6]	% of MoPrP105-132 co-localised with TfR (early endosomes) in squalestatin-treated cells [6]	% of MoPrP105-132 co-localised with caveolin-1 in squalestatin-treated cells [6]
1-O-alkyl-2-acetyl-sn-glycerol-3-phospho-(N,N,N-trimethyl)-hexanolamine [Hexa-PAF]	22% ± 6	13% ± 3	–	–	–	–	–	–	–	–	–	–	–	–
C=C(CC[C@]12O[C@H](C(=O)O)[C@@](O)(C(=O)O)[C@](C(=O)O)(O1)[C@H](OC(=O)/C=C/[C@@H](C)C[C@@H](C)CC)[C@H]2O)[C@@H](OC(C)=O)[C@H](C)Cc1ccccc1 [Squalestatin, squalestatin]	–	–	prevent peptide-induced neurotoxicity	13% ± 4	5% ± 5	25.3 ± 4 arbitrary units	detected in the LAMP-1 positive, TfR negative, lysosomal fraction	most of the MoPrP105-132 was detected in the non-raft fraction	5% ± 1	7% ± 2	3% ± 2	40% ± 6	68% ± 8	9% ± 3
